Measured values: paper PMC3878761, “Interactions of peptide triazole thiols with Env gp120 induce irreversible breakdown and inactivation of HIV-1 virions” (Retrovirology, 2013)
Entries after “also recorded” stand apart in the source; their conditions may differ. Read-outs that look alike come from different tables or passages of the source.

Columns and labels:
HIV-1 YU2 gp120 = molecular target: T1, HIV-1 YU2 gp120 (Human immunodeficiency virus type 1 group M subtype B, UniProt P35961); assay: SPR direct binding to immobilized YU2 gp120; settings: immobilized YU2 gp120, PBS + 0.005% Tween 20, pH 7.2, 25°C
T1 construct: made in house; host or cells: 293F cells
Protocol: (Additional file 1: Figure S2). […] Direct binding of the peptide triazole to sensor chip immobilized HIV-1 YU2 gp120 was measured as previously described using Surface Plasmon Resonance (SPR) with a Biacore 3000 optical biosensor (GE Healthcare). […] The cell viability was measured using the tetrazolium salt premix reagent, WST-1 from Takara Bio Inc. following the manufacturer’s protocol. The formazan product was measured using the microplate reader at absorbance wavelength 460 nm (Molecular Devices).

[1] = system: fully infectious HIV-1 BaL virions; settings: read-out: p24 release IC50 (*, fully infectious), 30 min at 37°C, p24 capture ELISA, ± SD
Protocol: (§2) The replication competent virions were assayed for peptide triazole-induced inhibition of infection, gp120 shedding and p24 release in a BSL-2 facility. Gradient purification of the viruses and p24 release assays were performed as with pseudoviruses (described in Materials and Methods above). Cell infection by virus and its inhibition by peptide triazoles were tested using a modified version of a previously reported p24 ELISA assay [60]. The p24 release assays as well as detection of gp120 shedding were conducted as with the BaL pseudovirions (described in Materials and Methods above).
(§3) Virions were purified using 6-20% iodixanol gradient and p24 content measured using ELISA. […] HOS CD4^+ve CCR5^+ve cells seeded, at 8,000 cells per well in a 96 well plate, were incubated for 24 hours followed by addition of pre-incubated inhibitor-virus mixture. […] Further, the peptide triazole and cell-free virus were pre-incubated for 30 min at 37°C followed by spinning for 2 hours at 13,600 rpm in a table top centrifuge (Eppendorf) at 4°C. Supernatant was separated and p24 content determined using the p24 capture ELISA (explained in the main Materials and Methods section) and gp120 using western blot analysis (explained in the Supplementary Text above).

HIV-1 BaL pseudovirus [2] = assay: p24 release from HIV-1 BaL pseudovirus (ELISA)
[3] = system: CHO-K1 cells expressing gp160; assay: gp120 shedding and lysis, CHO-K1 cells expressing gp160; assay type: cell-based; settings: unpublished results, manuscript in preparation
[4] = system: gp41 of HIV-1 BaL pseudovirus (2 F5 epitope); assay: exposure of gp41 MPER epitope, 2 F5 ELISA; settings: fixed BaL pseudovirions, 30 min at 37°C (dose) or 1 μM (time), n = 3
Protocol: (§1) We also measured the presence of gp41 epitopes for human mAb’s 2 F5 and 4E10 using an altered ELISA detection method to minimize virus particle disruption. […] Virus fractions were collected and fixed with equal volume of 0.1% paraformaldehyde for 30 minutes at 4°C. The treated virus fractions were spun at 16,000 X g for 2 hours at 4°C in an Eppendorf table top centrifuge. Following PBS wash, fixed virions were coated on an ELISA plate at 50 μl per well and incubated overnight at 4°C. The plate was blocked with 3% BSA, and ELISA was used to detect gp41 epitopes with human gp41 antibodies 2 F5 and 4E10 followed by addition of anti-human IgG HRP secondary antibody.

[5] = system: fully infectious HIV-1 BaL virions; assay: gp120 shedding from fully infectious HIV-1 BaL; settings: read-out: gp120 shedding IC50 (*, fully infectious), 30 min at 37°C, western blot, ± SD
Protocol: as §2, §3

HIV-1 BaL pseudovirus [6] = system: HIV-1 BaL pseudovirus
[7] = system: gp41 of HIV-1 BaL pseudovirus (98–6 epitope); assay: gp41 content of treated virions, mAb 98-6 western blot; settings: western blot mAb 98–6, BaL pseudovirus
[8] = system: pseudotype virions bearing the HIV-1 BaL envelope glycoprotein; settings: determined by release of the p24 capsid protein; cited from earlier work
Source text: Since gp120 is the first viral protein to interact with the host cell, it is an attractive target for inhibiting infection. […] This inhibition is mediated by binding to a region of gp120 that partially overlaps the CD4 binding site.

HIV-1 BaL pseudovirus [9] = assay: TEM morphology of treated virions; settings: KR13 1 μM, 24 hours
[10] = system: R5-tropic and X4-tropic HIV-1; set-up: method as in 2 sources, one per row (each row's own in cited_ref): ref 7-9, 12 = [7]; PMID 20518583; doi:10.2165/11203940-000000000-00000; Perry CM Maraviroc: a review of its use in the management of CCR5-tropic HIV-1 infection Drugs 2010 10 9 1189 1213 10.2165/11203940-000000000-00000 20518583 || [8]; PMID 23541872; doi:10.1016/j.antiviral.2013.03.017; Haqqani AA Tilton JC Entry inhibitors and their use in the treatment of HIV-1 infection Antiviral Res 2013 10 2 158 170 10.1016/j.antiviral.2013.03.017 23541872 || [9]; PMID 23290628; doi:10.1016/j.coviro.2012.12.002; Henrich TJ Kuritzkes DR HIV-1 entry inhibitors: recent development and clinical use Curr Opin Virol 2013 10 1 51 57 10.1016/j.coviro.2012.12.002 23290628 PMC4213740 || [12]; PMID 17933722; Emmelkamp JM Rockstroh JK CCR5 antagonists: comparison of efficacy, side effects, pharmacokinetics and interactions–review of the literature Eur J Med Res 2007 10 9 409 417 17933722 ||| ref 34 = [34]; PMID 23470147; doi:10.1021/bi400166b; Emileh A Tuzer F Yeh H Umashankara M Moreira DR Lalonde JM Bewley CA Abrams CF Chaiken IM A model of peptide triazole entry inhibitor binding to HIV-1 gp120 and the mechanism of bridging sheet disrupt; settings: cited from earlier work
HIV-1 BaL pseudovirus [11] = assay: gp120 shedding from HIV-1 BaL pseudovirus (western blot)
[12] = system: gp41 of HIV-1 BaL pseudovirus (4E10 epitope); assay: exposure of gp41 MPER epitope, 4E10 ELISA; settings: fixed BaL pseudovirions, 30 min at 37°C (dose) or 1 μM (time), n = 3
Protocol: as §1

[13] = KR13 1 μM or HNG156 100 μM, 1 min to 24 hours, 37°C
[14] = KR13 (1 μM), 30 minutes exposure, n = 3

CC[C@H](C)[C@H](NC(=O)[C@@H](N)CCCNC(=N)N)C(=O)N[C@@H](CC(N)=O)C(=O)N[C@@H](CC(N)=O)C(=O)N[C@H](C(=O)N1C[C@@H](n2cc([C]34[CH]5[CH]6[CH]7[CH]3[Fe]6754389%10[CH]4[CH]3[CH]8[CH]9[CH]4%10)nn2)C[C@H]1C(=O)N[C@@H](Cc1c[nH]c2ccccc12)C(=O)N[C@@H](CO)C(=O)N[C@@H](CCC(=O)O)C(=O)N[C@@H](C)C(=O)N[C@@H](CCSC)C(=O)N[C@@H](CCSC)C(=O)NCCC(=O)N[C@@H](CCC(N)=O)C(=O)NCCC(=O)N[C@@H](CS)C(N)=O)[C@@H](C)CC (stereo partly drawn) [KR13]
SPR direct binding to gp120, in words (HIV-1 YU2 gp120): proportionally increasing binding responses to immobilized gp120 at increasing concentrations of KR13 | IC50 [1]: 4.4 µM | kinetics of p24 release (HIV-1 BaL pseudovirus [2]; [13]): delayed kinetically | loss of p24 (HIV-1 BaL pseudovirus [2]; [14]): 10% | reduction in virion p24 content (HIV-1 BaL pseudovirus [2]; KR13 (1 μM), 360 minutes): 50% | IC50 (HIV-1 BaL pseudovirus [2]; read-out: p24 release IC50, 30 minutes, gradient fractionation, capture ELISA, 1% triton X = 100%, ± SD, n > 3): 32 ± 10 nM | gp120 shedding, CHO-K1 cells expressing gp160 [3]: caused gp120 shedding | lysis of CHO-K1 cells expressing gp160 [3]: did not lyse the cells | reactivity to 2 F5 [4]: reactivity to 4E10 and 2 F5 increased in a dose-dependent manner; also recorded: time dependent exposure of the MPER epitope | IC50 [5]: 1200 nM | kinetics of infectivity inhibition versus gp120 shedding (HIV-1 BaL pseudovirus [6]; [13]): infectivity inhibition and gp120 shedding had similar kinetics | loss of infectivity (HIV-1 BaL pseudovirus [6]; [14]): 65-70% | inhibition of infection, in words (HIV-1 BaL pseudovirus [6]; single round infection assay): inhibited infection | gp41 retention / 98–6 detection [7]: gp41 remained associated with virions; also recorded: gp41 was detected only weakly by 98–6 in either soluble or virion-associated fractions | lysis of BaL pseudotype virions [8]: induced lysis of pseudotype virions bearing the HIV-1 BaL envelope glycoprotein | core morphology of virions (HIV-1 BaL pseudovirus [9]): substantially different, with a shriveled and disordered appearance | reduction of virion diameter (HIV-1 BaL pseudovirus [9]; 37°C, n = 16): > 50% | inhibition of R5- and X4-tropic viruses [10]: potent inhibitor of R5- and X4-tropic viruses | gp120 shedding, in words (HIV-1 BaL pseudovirus [11]): caused gp120 shedding | loss of gp120 (HIV-1 BaL pseudovirus [11]; [14]): 65-70% | reactivity to 4E10 [12]: reactivity to 4E10 and 2 F5 increased in a dose-dependent manner; also recorded: time dependent exposure of the MPER epitope
